Results from publication PMC9463526 (Journal of Pharmaceutical Analysis, 2022).

Key:
[1] = Analyte stability in human plasma; format: physicochemical; settings: for Freeze-thaw stability, Accuracy / Freeze-thaw stability, Mean concentration / Freeze-thaw stability, Difference: 3 cycles; for Freeze-thaw stability, Difference / Benchtop stability, Difference / Processed sample stability, Difference / Autosampler stability (5 °C), Difference / Long-term stability (−20 °C), Difference: vs freshly processed QC; for Benchtop stability, Accuracy / Benchtop stability, Mean concentration / Benchtop stability, Difference: 19 h; for Processed sample stability, Accuracy / Processed sample stability, Mean concentration / Processed sample stability, Difference: 23 h; for Autosampler stability (5 °C), Accuracy / Autosampler stability (5 °C), Mean concentration / Autosampler stability (5 °C), Difference: 112 h; for Long-term stability (−20 °C), Accuracy / Long-term stability (−20 °C), Mean concentration / Long-term stability (−20 °C), Difference: 27 days
Procedure: (§1) The stability of the analytes was studied under various storage and processing conditions. […] Short- and long-term stability studies of all analytes were conducted in human blank plasma and brain homogenate under several storage conditions. Analyte stability in biological matrices was analyzed using freshly prepared calibration standards and QC samples. The percentage difference between the stability and freshly processed QC was also assessed. Re-injection reproducibility was evaluated within the sample stability period in the autosampler. Analytes were considered stable if the accuracy at each level was ±15.0% of the nominal value. Additionally, the difference from corresponding comparison QC samples must be within ±15.0%.

[2] = Analyte stability in brain homogenate; format: physicochemical, human; settings: for Freeze-thaw stability, Accuracy / Freeze-thaw stability, Mean concentration / Freeze-thaw stability, Difference: 3 cycles; for Freeze-thaw stability, Difference / Benchtop stability, Difference / Processed sample stability, Difference / Autosampler stability (5 °C), Difference / Long-term stability (−20 °C), Difference: vs freshly processed QC; for Benchtop stability, Accuracy / Benchtop stability, Mean concentration / Benchtop stability, Difference: 6 h; for Processed sample stability, Accuracy / Processed sample stability, Mean concentration / Processed sample stability, Difference: 22 h; for Autosampler stability (5 °C), Accuracy / Autosampler stability (5 °C), Mean concentration / Autosampler stability (5 °C), Difference: 96 h; for Long-term stability (−20 °C), Accuracy / Long-term stability (−20 °C), Mean concentration / Long-term stability (−20 °C), Difference: 39 days
Procedure: as §1

[3] = Equilibrium dialysis, fraction unbound in plasma; format: in vitro ADME, human; settings: pH 7.4, 16 h equilibrium dialysis
Procedure: (§2) Equilibrium dialysis was employed to measure the fraction unbound of analytes in plasma, brain, and brain tumor tissue homogenates using 96-well DispoEquilibrium Dialyzer plates with a 10 kDa cut-off regenerated cellulose membrane. Dialysis was performed using 180 μL of human plasma or tissue homogenate against an equal volume of PBS (pH 7.4) in a dual-plate rotator (Harvard Apparatus, Holliston, MA, USA). Equilibrium time was initially optimized by analyzing samples after 2, 4, 6, 8, 16, and 24 h of dialysis at concentrations of 20 and 200 nM in human plasma and brain homogenate. The dialysates were collected and processed as described in Sections 2.3.2 and 2.3.3. The recovery of analytes was calculated as the ratio of analyte concentration after dialysis (sum of concentrations found in PBS and matrix fractions) to the total concentration to ensure the reliability and reproducibility of the assay. The experiments were repeated at least three times, and each sample in triplicate and average fraction unbound values were determined.
(§3) The fraction unbound in plasma (fu, plasma) and tissue homogenate (fu, hom) was evaluated as the analyte concentration ratio of post-dialysis PBS (cu) to post-dialysis plasma (cp, Eq. (1)) or homogenate (chom, Eq. (2)).(1) fu,plasma =cu/cp (2) fu,hom =cu/chom
(§4) Unbound drug levels in the actual plasma and brain tumor tissue were measured using dialysis for 16 h to reach equilibrium. The mean of fraction unbound values determined in five patient samples was calculated.

[4] = Equilibrium dialysis, fraction unbound in brain homogenate; format: in vitro ADME, human
Procedure: as §2, §3
(§5) The fraction unbound in the actual tissue (fu, tissue) was obtained by incorporating the unbound fraction in the tissue homogenate (fu, hom) and the dilution factor (Df) into Eq. (3).(3) fu,tissue = fu,hom/[Df - (Df - 1)fu,hom]

[5] = Equilibrium dialysis, fraction unbound in patient brain tumor tissue; format: in vitro ADME; settings: human, five patients, 16 h equilibrium dialysis
Procedure: as §2, §3, §5, §4
The validated bioanalytical method was employed to investigate analytes pharmacokinetics in the plasma, brain tumor, and CSF in GBM patients (ClinicalTrials.gov identifier: NCT04391595). The protocol was reviewed and approved by the Institutional Review Board of the Barrow Neurological Institute, St. Joseph's Hospital and Medical Center (Phoenix, AZ, USA). All patients enrolled in the trial provided written informed consent. […] Blood, CSF, and GBM tissue (including gadolinium-contrast enhancing and non-enhancing regions) samples were obtained intra-operatively from each patient on the […] on the planned operation day. Blood was centrifuged at 4 °C and 3,000 r/min for 10 min; plasma was subsequently collected. Brain tumors were resected 7–9 h after the last dose was administered. Once resected, the tissue samples were rinsed with PBS, paper dried, and freshly frozen in liquid nitrogen. The samples were then stored at −80 °C in a freezer for later analysis.

Freeze-thaw stability, Accuracy ([1]; HQC 400.0 nM): 106%
Freeze-thaw stability, Mean concentration ([1]; HQC 400.0 nM): 424.2 nM
Freeze-thaw stability, Difference ([1]; HQC 400.0 nM): 5.8%
Freeze-thaw stability, Accuracy ([1]; LQC 0.6 nM): 105.3%
Freeze-thaw stability, Mean concentration ([1]; LQC 0.6 nM): 0.632 nM
Freeze-thaw stability, Difference ([1]; LQC 0.6 nM): 5.8%
Benchtop stability, Accuracy ([1]; HQC 400.0 nM): 103.8%
Benchtop stability, Mean concentration ([1]; HQC 400.0 nM): 415.0 nM
Benchtop stability, Difference ([1]; HQC 400.0 nM): 1.1%
Benchtop stability, Accuracy ([1]; LQC 0.6 nM): 92.2%
Benchtop stability, Mean concentration ([1]; LQC 0.6 nM): 0.553 nM
Benchtop stability, Difference ([1]; LQC 0.6 nM): −1.7%
Processed sample stability, Accuracy ([1]; HQC 400.0 nM): 100.6%
Processed sample stability, Mean concentration ([1]; HQC 400.0 nM): 402.2 nM
Processed sample stability, Difference ([1]; HQC 400.0 nM): 0.7%
Processed sample stability, Accuracy ([1]; LQC 0.6 nM): 95.5%
Processed sample stability, Mean concentration ([1]; LQC 0.6 nM): 0.573 nM
Processed sample stability, Difference ([1]; LQC 0.6 nM): 3.6%
Autosampler stability (5 °C), Accuracy ([1]; HQC 400.0 nM): 97.7%
Autosampler stability (5 °C), Mean concentration ([1]; HQC 400.0 nM): 390.9 nM
Autosampler stability (5 °C), Difference ([1]; HQC 400.0 nM): −0.2%
Autosampler stability (5 °C), Accuracy ([1]; LQC 0.6 nM): 96.8%
Autosampler stability (5 °C), Mean concentration ([1]; LQC 0.6 nM): 0.581 nM
Autosampler stability (5 °C), Difference ([1]; LQC 0.6 nM): 4.8%
Long-term stability (−20 °C), Accuracy ([1]; HQC 400.0 nM): 109.2%
Long-term stability (−20 °C), Mean concentration ([1]; HQC 400.0 nM): 437.0 nM
Long-term stability (−20 °C), Difference ([1]; HQC 400.0 nM): 5.6%
Long-term stability (−20 °C), Accuracy ([1]; LQC 0.6 nM): 99.9%
Long-term stability (−20 °C), Mean concentration ([1]; LQC 0.6 nM): 0.6 nM
Long-term stability (−20 °C), Difference ([1]; LQC 0.6 nM): −3.1%
Freeze-thaw stability, Accuracy ([2]; HQC 400.0 nM): 101.3%
Freeze-thaw stability, Mean concentration ([2]; HQC 400.0 nM): 405.1 nM
Freeze-thaw stability, Difference ([2]; HQC 400.0 nM): −6.8%
Freeze-thaw stability, Accuracy ([2]; LQC 0.6 nM): 98.3%
Freeze-thaw stability, Mean concentration ([2]; LQC 0.6 nM): 0.590 nM
Freeze-thaw stability, Difference ([2]; LQC 0.6 nM): −9.4%
Benchtop stability, Accuracy ([2]; HQC 400.0 nM): 97.0%
Benchtop stability, Mean concentration ([2]; HQC 400.0 nM): 388.2 nM
Benchtop stability, Difference ([2]; HQC 400.0 nM): −5.9%
Benchtop stability, Accuracy ([2]; LQC 0.6 nM): 102.4%
Benchtop stability, Mean concentration ([2]; LQC 0.6 nM): 0.614 nM
Benchtop stability, Difference ([2]; LQC 0.6 nM): 6.9%
Processed sample stability, Accuracy ([2]; HQC 400.0 nM): 100.2%
Processed sample stability, Mean concentration ([2]; HQC 400.0 nM): 400.9 nM
Processed sample stability, Difference ([2]; HQC 400.0 nM): −2.8%
Processed sample stability, Accuracy ([2]; LQC 0.6 nM): 105.4%
Processed sample stability, Mean concentration ([2]; LQC 0.6 nM): 0.632 nM
Processed sample stability, Difference ([2]; LQC 0.6 nM): 10.0%
Autosampler stability (5 °C), Accuracy ([2]; HQC 400.0 nM): 105.4%
Autosampler stability (5 °C), Mean concentration ([2]; HQC 400.0 nM): 421.6 nM
Autosampler stability (5 °C), Difference ([2]; HQC 400.0 nM): 6.2%
Autosampler stability (5 °C), Accuracy ([2]; LQC 0.6 nM): 102.4%
Autosampler stability (5 °C), Mean concentration ([2]; LQC 0.6 nM): 0.615 nM
Autosampler stability (5 °C), Difference ([2]; LQC 0.6 nM): 13.5%
Long-term stability (−20 °C), Accuracy ([2]; HQC 400.0 nM): 103.4%
Long-term stability (−20 °C), Mean concentration ([2]; HQC 400.0 nM): 413.6 nM
Long-term stability (−20 °C), Difference ([2]; HQC 400.0 nM): −4.8%
Long-term stability (−20 °C), Accuracy ([2]; LQC 0.6 nM): 98.3%
Long-term stability (−20 °C), Mean concentration ([2]; LQC 0.6 nM): 0.590 nM
Long-term stability (−20 °C), Difference ([2]; LQC 0.6 nM): −9.5%
fraction unbound at 16 h ([3]; human, plasma of five GBM patients, read-out: Fraction unbound (fu), Plasma (patients)): 0.045
fraction unbound at 16 h ([3]; pooled human plasma spiked at 20 and 200 nM, read-out: Fraction unbound (fu), Plasma (pooled)): 0.052
fraction unbound at 16 h ([4]; pH 7.4, human brain homogenate spiked at 20 and 200 nM, 16 h equilibrium dialysis, read-out: Fraction unbound (fu), Brain): 0.008
Plasma protein binding compared to binding to brain tissue components (ratio) ([4]; spiked pooled human plasma vs human brain homogenate): at least 6.5 fold
fraction unbound at 16 h ([5]; pH 7.4, gadolinium contrast enhancing GBM region, read-out: Fraction unbound (fu), GBM (E)): 0.009
fraction unbound at 16 h ([5]; pH 7.4, gadolinium contrast non-enhancing GBM region, read-out: Fraction unbound (fu), GBM (NE)): 0.006
SMILES: Cc1nc2c(F)cc(-c3nc(Nc4ccc(CN5CCNCC5)cn4)ncc3F)cc2n1C(C)C [M2]
